Measured values reported in article PMC2966039 (Journal of Medicinal Chemistry, 2009).
Values belong to the molecule of their own block, whether it stands above or below them.

Legend:
[1] = target: T1, TbPTR1 (Trypanosoma brucei brucei, UniProt O76290); assay: TbPTR1 activity assay; type: biochemical; conditions: for Hill slope: averaged over at least two independent measurements; for ligand efficiency: from Ki^app
T1 sequence (O76290 1-268): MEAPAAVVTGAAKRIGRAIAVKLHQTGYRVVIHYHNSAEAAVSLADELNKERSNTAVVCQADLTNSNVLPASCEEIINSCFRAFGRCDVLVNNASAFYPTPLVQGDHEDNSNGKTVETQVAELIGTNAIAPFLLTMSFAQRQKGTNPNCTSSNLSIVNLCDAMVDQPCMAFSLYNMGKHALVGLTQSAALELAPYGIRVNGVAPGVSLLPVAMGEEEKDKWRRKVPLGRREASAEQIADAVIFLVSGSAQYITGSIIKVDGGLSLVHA

[2] = target: LmPTR1; conditions: cited from earlier work

SMILES: COC(=O)c1ccc2nc(N)sc2c1 [Compound 2]
Hill slope [1]: 0.6 | ligand efficiency [1]: 0.46 kcal mol^−1/heavy atom

SMILES: Nc1nc2ccc(Cl)cc2[nH]1 [Compound 4, 2-Amino-6-chloro-benzimidazole]
Hill slope [1]: 0.9 | ligand efficiency [1]: 0.62 kcal mol^−1/heavy atom

SMILES: Cc1cnc2nc(N)nc(N)c2n1 [6-methylpteridine-2,4-diamine]
inhibition constants [2]: low micromolar range

SMILES: Nc1nc2ccc(C(=O)N3CCCCC3)cc2s1 [Compound 3]
Hill slope [1]: 0.6 | ligand efficiency [1]: 0.29 kcal mol^−1/heavy atom

Next, values leading:

increase in potency ([1]; compared to the 7-chloro derivative 10): 10 fold
SMILES: CCCOc1cccc2nc(N)n(Cc3ccc(Cl)c(Cl)c3)c12 [Compound 11, 7-(n-Propyloxy)-1-(3,4-dichlorobenzyl)-1H-benzo[d]imidazol-2-amine]

Hill slope [1]: 1.0
SMILES: Nc1nc2cccc(Cl)c2n1Cc1ccc(Cl)c(Cl)c1 [Compound 10, 7-Chloro-1-(3,4-dichlorobenzyl)-1H-benzo[d]imidazol-2-amine]

Hill slope [1]: 0.9 | drop in affinity ([1]; compared to 4): more than 20 fold
SMILES: Nc1nc2ccccc2[nH]1 [Compound 5, 2-amino-benzimidazole]

Hill slope [1]: 0.7
SMILES: Nc1nc2cccc(-c3ccccc3)c2n1Cc1ccc(Cl)c(Cl)c1 [Compound 12, 7-Phenyl-1-(3,4-dichlorobenzyl)-1H-benzo[d]imidazol-2-amine]

Hill slope [1]: 0.7 | increase in affinity ([1]; compared to the virtual screening hit (4)): more than 20 fold
SMILES: Nc1nc2ccccc2n1Cc1ccc(Cl)c(Cl)c1 [Compound 9, 1-(3,4-dichloro-benzyl)-2-amino-benzimidazole]

Hill slope [1]: 1.1
SMILES: Cc1cccc(-c2ccc3nc(N)[nH]c3c2)c1 [Compound 6]
